Measurements published in patent US20140213513A1 (Sanofi, priority 2012, published 2014).
*1 amine or outer side, *2 acyl side, *3 side chain or, on linkers, in order; H or OH if unused. Where a SMILES comes first, the peptide text is derived from it. Side-chain parts run from the residue outwards. [ ]: non-standard residue; d: D form. The star is where a group is joined. γGlu = O=C(O)[C@H](CCC(=O)[*:2])N[*:1]; Stearoyl = CCCCCCCCCCCCCCCCCC(=O)*; Palmitoyl = CCCCCCCCCCCCCCCC(=O)*; Aib = CC(C)(N)C(=O)O

Key:
Type in all cases: cell-based
Conditions in all cases: Table 7; cAMP formation
[1] = biological target: T1, human GLP-1 receptor (hGLP-1 R) (Homo sapiens, UniProt P43220); experiment: cAMP response of HEK-293 cells stably expressing human GLP-1 receptor (HTRF)
T1 construct: expressed in transfected cells
T1 sequence (P43220 24-463): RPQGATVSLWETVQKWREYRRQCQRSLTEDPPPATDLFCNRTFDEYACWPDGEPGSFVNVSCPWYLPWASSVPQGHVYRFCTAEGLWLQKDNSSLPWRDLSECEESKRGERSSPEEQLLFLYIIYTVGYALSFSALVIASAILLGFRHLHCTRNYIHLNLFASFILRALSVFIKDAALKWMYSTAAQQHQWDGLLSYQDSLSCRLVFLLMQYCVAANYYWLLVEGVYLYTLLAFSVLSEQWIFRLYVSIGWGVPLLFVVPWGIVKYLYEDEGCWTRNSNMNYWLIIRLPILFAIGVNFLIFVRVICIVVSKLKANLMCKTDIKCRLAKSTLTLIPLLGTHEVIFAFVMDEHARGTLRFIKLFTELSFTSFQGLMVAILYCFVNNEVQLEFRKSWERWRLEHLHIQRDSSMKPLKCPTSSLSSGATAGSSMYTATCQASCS
Procedure, shortened: (§1)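 Stably transfected HEK-293 cells, accutase-harvested; assay buffer 1×HBSS/20 mM HEPES/0.1% BSA/2 mM IBMX; 400000 cells/ml; compound 30 min, RT; cAMP by HTRF kit.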

[2] = biological target: T2, human glucagon receptor (hGLUC R) (Homo sapiens, UniProt P47871); experiment: cAMP response of HEK-293 cells stably expressing human glucagon receptor (HTRF)
T2 construct: expressed in transfected cells
T2 sequence (P47871 26-477): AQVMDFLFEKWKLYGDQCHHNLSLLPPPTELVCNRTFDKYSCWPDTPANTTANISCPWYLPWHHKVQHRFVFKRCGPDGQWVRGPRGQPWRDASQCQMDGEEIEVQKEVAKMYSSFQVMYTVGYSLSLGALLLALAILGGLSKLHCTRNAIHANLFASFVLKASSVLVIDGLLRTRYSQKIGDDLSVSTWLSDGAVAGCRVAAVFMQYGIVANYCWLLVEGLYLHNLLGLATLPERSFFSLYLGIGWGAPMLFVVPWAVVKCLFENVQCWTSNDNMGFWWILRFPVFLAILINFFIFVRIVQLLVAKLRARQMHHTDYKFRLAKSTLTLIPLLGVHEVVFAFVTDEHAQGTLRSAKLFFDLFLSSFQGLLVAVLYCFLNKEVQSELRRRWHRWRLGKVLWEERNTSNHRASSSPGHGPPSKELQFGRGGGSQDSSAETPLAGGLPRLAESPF
Procedure, shortened: as §1

[3] = biological target: T3, human GIP receptor (hGIP R) (Homo sapiens, UniProt P48546); experiment: cAMP response of HEK-293 cells stably expressing human GIP receptor (HTRF)
T3 construct: expressed in transfected cells
T3 sequence (P48546 22-466): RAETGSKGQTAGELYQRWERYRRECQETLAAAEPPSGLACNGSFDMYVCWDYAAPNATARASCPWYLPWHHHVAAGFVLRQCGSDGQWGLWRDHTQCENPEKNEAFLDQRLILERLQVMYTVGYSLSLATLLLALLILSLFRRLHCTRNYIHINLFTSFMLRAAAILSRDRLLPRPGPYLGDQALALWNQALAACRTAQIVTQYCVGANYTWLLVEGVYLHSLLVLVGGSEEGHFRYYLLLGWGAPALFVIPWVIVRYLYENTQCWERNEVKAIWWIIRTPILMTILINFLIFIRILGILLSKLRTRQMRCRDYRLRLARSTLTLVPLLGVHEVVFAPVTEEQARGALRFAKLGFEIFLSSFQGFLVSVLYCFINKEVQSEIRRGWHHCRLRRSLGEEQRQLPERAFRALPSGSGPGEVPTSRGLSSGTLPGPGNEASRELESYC
Procedure, shortened: as §1

Row | SMILES | EC50 [1] [nM] | EC50 [2] [nM] | EC50 [3] [nM]
1 | CCCCCCCCCCCCCCCC(=O)N[C@@H](CCC(=O)NCCCC[C@H](NC(=O)[C@H](CCC(N)=O)NC(=O)[C@@H](NC(=O)[C@H](CO)NC(=O)[C@H](CC(C)C)NC(=O)[C@H](CC(=O)O)NC(=O)[C@H](CO)NC(=O)[C@@H](NC(=O)[C@H](Cc1ccccc1)NC(=O)[C@@H](NC(=O)CNC(=O)[C@H](CCC(N)=O)NC(=O)C(C)(C)NC(=O)[C@@H](N)Cc1ccc(O)cc1)[C@@H](C)O)[C@@H](C)O)[C@@H](C)CC)C(=O)N[C@@H](CC(=O)O)C(=O)N[C@@H](CCCCN)C(=O)N[C@@H](CCCNC(=N)N)C(=O)N[C@@H](C)C(=O)N[C@@H](C)C(=O)NC(C)(C)C(=O)N[C@@H](CC(C)C)C(=O)N[C@@H](Cc1ccccc1)C(=O)N[C@H](C(=O)N[C@@H](CCC(=O)O)C(=O)N[C@@H](Cc1c[nH]c2ccccc12)C(=O)N[C@@H](CC(C)C)C(=O)N[C@@H](CCCCN)C(=O)N[C@@H](C)C(=O)NCC(=O)NCC(=O)N1CCC[C@H]1C(=O)N[C@@H](CO)C(=O)N[C@@H](CO)C(=O)NCC(=O)N[C@@H](C)C(=O)N1CCC[C@H]1C(=O)N1CCC[C@H]1C(=O)N1CCC[C@H]1C(=O)N[C@@H](CO)C(N)=O)[C@@H](C)CC)C(=O)O [SEQ ID NO: 27, Y-Aib-Q-G-T-F-T-S-D-L-S-I-Q-K(yE-x53)-D-K-R-A-A-Aib-L-F-I-E-W-L-K-A-G-G-P-S-S-G-A-P-P-P-S-NH2] (H-Y[Aib]QGTFTSDLSIQK([γGlu-Palmitoyl])DKRAA[Aib]LFIEWLKAGGPSSGAPPPS-NH2) | 0.0147 | 0.0389 | 0.0826
2 | CCCCCCCCCCCCCCCC(=O)N[C@@H](CCC(=O)NCCCC[C@H](NC(=O)[C@H](CCC(N)=O)NC(=O)[C@@H](NC(=O)[C@H](CO)NC(=O)[C@H](CC(C)C)NC(=O)[C@H](CC(=O)O)NC(=O)[C@H](CO)NC(=O)[C@@H](NC(=O)[C@H](Cc1ccccc1)NC(=O)[C@@H](NC(=O)CNC(=O)[C@H](CCC(N)=O)NC(=O)C(C)(C)NC(=O)[C@@H](N)Cc1ccc(O)cc1)[C@@H](C)O)[C@@H](C)O)[C@@H](C)CC)C(=O)N[C@@H](CCC(=O)O)C(=O)N[C@@H](CCCCN)C(=O)N[C@@H](CC(C)C)C(=O)N[C@@H](C)C(=O)N[C@@H](C)C(=O)NC(C)(C)C(=O)N[C@@H](CCC(=O)O)C(=O)N[C@@H](Cc1ccccc1)C(=O)N[C@H](C(=O)N[C@@H](CCC(=O)O)C(=O)N[C@@H](Cc1c[nH]c2ccccc12)C(=O)N[C@@H](CC(C)C)C(=O)N[C@@H](CCCCN)C(=O)N[C@@H](CC(N)=O)C(=O)N[C@H](C(=O)NCC(=O)N1CCC[C@H]1C(=O)N[C@@H](CO)C(=O)N[C@@H](CO)C(=O)NCC(=O)N[C@@H](C)C(=O)N1CCC[C@H]1C(=O)N1CCC[C@H]1C(=O)N1CCC[C@H]1C(=O)N[C@@H](CO)C(N)=O)[C@@H](C)O)[C@@H](C)CC)C(=O)O [SEQ ID NO: 8, Y-Aib-Q-G-T-F-T-S-D-L-S-I-Q-K(yE-x53)-E-K-L-A-A-Aib-E-F-I-E-W-L-K-N-T-G-P-S-S-G-A-P-P-P-S-NH2] (H-Y[Aib]QGTFTSDLSIQK([γGlu-Palmitoyl])EKLAA[Aib]EFIEWLKNTGPSSGAPPPS-NH2) | 0.0087 | 0.803 | 0.026
3 | CCCCCCCCCCCCCCCC(=O)N[C@@H](CCC(=O)NCCCC[C@H](NC(=O)[C@H](CCC(N)=O)NC(=O)[C@@H](NC(=O)[C@H](CO)NC(=O)[C@H](CC(C)C)NC(=O)[C@H](CC(=O)O)NC(=O)[C@H](CO)NC(=O)[C@@H](NC(=O)[C@H](Cc1ccccc1)NC(=O)[C@@H](NC(=O)CNC(=O)[C@H](CCC(N)=O)NC(=O)C(C)(C)NC(=O)[C@@H](N)Cc1ccc(O)cc1)[C@@H](C)O)[C@@H](C)O)[C@@H](C)CC)C(=O)N[C@@H](CCC(=O)O)C(=O)N[C@@H](CCCCN)C(=O)N[C@@H](CCCNC(=N)N)C(=O)N[C@@H](C)C(=O)N[C@H](C(=O)NC(C)(C)C(=O)N[C@@H](CCC(=O)O)C(=O)N[C@@H](Cc1ccccc1)C(=O)N[C@H](C(=O)N[C@@H](CCC(=O)O)C(=O)N[C@@H](Cc1c[nH]c2ccccc12)C(=O)N[C@@H](CC(C)C)C(=O)N[C@@H](CCCCN)C(=O)N[C@@H](C)C(=O)NCC(=O)NCC(=O)N1CCC[C@H]1C(=O)N[C@@H](CO)C(=O)N[C@@H](CO)C(=O)NCC(=O)N[C@@H](C)C(=O)N1CCC[C@H]1C(=O)N1CCC[C@H]1C(=O)N1CCC[C@H]1C(=O)N[C@@H](CO)C(N)=O)[C@@H](C)CC)C(C)C)C(=O)O [SEQ ID NO: 26, Y-Aib-Q-G-T-F-T-S-D-L-S-I-Q-K(yE-x53)-E-K-R-A-V-Aib-E-F-I-E-W-L-K-A-G-G-P-S-S-G-A-P-P-P-S-NH2] (H-Y[Aib]QGTFTSDLSIQK([γGlu-Palmitoyl])EKRAV[Aib]EFIEWLKAGGPSSGAPPPS-NH2) | 0.0176 | 0.3 | 0.0053
4 | CCCCCCCCCCCCCCCC(=O)N[C@@H](CCC(=O)NCCCC[C@H](NC(=O)[C@H](CCC(N)=O)NC(=O)[C@@H](NC(=O)[C@H](CO)NC(=O)[C@H](CC(C)C)NC(=O)[C@H](CC(=O)O)NC(=O)[C@H](CO)NC(=O)[C@@H](NC(=O)[C@H](Cc1ccccc1)NC(=O)[C@@H](NC(=O)CNC(=O)[C@H](CCC(N)=O)NC(=O)C(C)(C)NC(=O)[C@@H](N)Cc1ccc(O)cc1)[C@@H](C)O)[C@@H](C)O)[C@@H](C)CC)C(=O)N[C@@H](CC(=O)O)C(=O)N[C@@H](CO)C(=O)N[C@@H](CCCNC(=N)N)C(=O)N[C@@H](C)C(=O)N[C@@H](C)C(=O)N[C@@H](CCC(N)=O)C(=O)N[C@@H](CC(=O)O)C(=O)N[C@@H](Cc1ccccc1)C(=O)N[C@H](C(=O)N[C@@H](CCC(=O)O)C(=O)N[C@@H](Cc1c[nH]c2ccccc12)C(=O)N[C@@H](CC(C)C)C(=O)N[C@@H](CCCCN)C(=O)N[C@@H](CCCCN)C(=O)NCC(=O)NCC(=O)N1CCC[C@H]1C(=O)N[C@@H](CO)C(=O)N[C@@H](CO)C(=O)NCC(=O)N[C@@H](C)C(=O)N1CCC[C@H]1C(=O)N1CCC[C@H]1C(=O)N1CCC[C@H]1C(=O)N[C@@H](CO)C(N)=O)[C@@H](C)CC)C(=O)O [SEQ ID NO: 43, Y-Aib-Q-G-T-F-T-S-D-L-S-I-Q-K(yE-x53)-DSRAAQDFIEWLKKGGPSSGAPPPS-NH2] (H-Y[Aib]QGTFTSDLSIQK([γGlu-Palmitoyl])DSRAAQDFIEWLKKGGPSSGAPPPS-NH2) | 0.007 | 0.114 | 0.0482
5 | CCCCCCCCCCCCCCCCCC(=O)N[C@@H](CCC(=O)NCCCC[C@H](NC(=O)[C@H](CCC(N)=O)NC(=O)[C@@H](NC(=O)[C@H](CO)NC(=O)[C@H](CC(C)C)NC(=O)[C@H](CC(=O)O)NC(=O)[C@H](CO)NC(=O)[C@@H](NC(=O)[C@H](Cc1ccccc1)NC(=O)[C@@H](NC(=O)CNC(=O)[C@H](CCC(=O)O)NC(=O)C(C)(C)NC(=O)[C@@H](N)Cc1ccc(O)cc1)[C@@H](C)O)[C@@H](C)O)[C@@H](C)CC)C(=O)N[C@@H](CCC(=O)O)C(=O)N[C@@H](CO)C(=O)N[C@@H](CCCCN)C(=O)N[C@@H](C)C(=O)N[C@@H](C)C(=O)NC(C)(C)C(=O)N[C@@H](CCC(=O)O)C(=O)N[C@@H](Cc1ccccc1)C(=O)N[C@H](C(=O)N[C@@H](CCC(=O)O)C(=O)N[C@@H](Cc1c[nH]c2ccccc12)C(=O)N[C@@H](CC(C)C)C(=O)N[C@@H](CCCCN)C(=O)N[C@@H](C)C(=O)NCC(=O)NCC(=O)N1CCC[C@H]1C(=O)N[C@@H](CO)C(=O)N[C@@H](CO)C(=O)NCC(=O)N[C@@H](C)C(=O)N1CCC[C@H]1C(=O)N1CCC[C@H]1C(=O)N1CCC[C@H]1C(=O)N[C@@H](CO)C(N)=O)[C@@H](C)CC)C(=O)O [SEQ ID NO: 29, Y-Aib-E-G-T-F-T-S-D-L-S-I-Q-K(yE-x70)-E-S-K-A-A-Aib-E-F-I-E-W-L-K-A-G-G-P-S-S-G-A-P-P-P-S-NH2] (H-Y[Aib]EGTFTSDLSIQK([γGlu-Stearoyl])ESKAA[Aib]EFIEWLKAGGPSSGAPPPS-NH2) | 0.0072 | 15 | 0.013
6 | CCCCCCCCCCCCCCCC(=O)N[C@@H](CCC(=O)NCCCC[C@H](NC(=O)[C@H](CCC(N)=O)NC(=O)[C@H](CCCCN)NC(=O)[C@H](CO)NC(=O)[C@H](CC(C)C)NC(=O)[C@H](CC(=O)O)NC(=O)[C@H](CO)NC(=O)[C@@H](NC(=O)[C@H](Cc1ccccc1)NC(=O)[C@@H](NC(=O)CNC(=O)[C@H](CCC(N)=O)NC(=O)C(C)(C)NC(=O)[C@@H](N)Cc1ccc(O)cc1)[C@@H](C)O)[C@@H](C)O)C(=O)N[C@@H](CC(=O)O)C(=O)N[C@@H](CO)C(=O)N[C@@H](CCCNC(=N)N)C(=O)N[C@@H](C)C(=O)N[C@@H](C)C(=O)N[C@@H](CCCNC(=N)N)C(=O)N[C@@H](CC(=O)O)C(=O)N[C@@H](Cc1ccccc1)C(=O)N[C@H](C(=O)N[C@@H](CCC(=O)O)C(=O)N[C@@H](Cc1c[nH]c2ccccc12)C(=O)N[C@@H](CC(C)C)C(=O)N[C@@H](CCCCN)C(=O)N[C@@H](C)C(=O)NCC(=O)NCC(=O)N1CCC[C@H]1C(=O)N[C@@H](CO)C(=O)N[C@@H](CO)C(=O)NCC(=O)N[C@@H](C)C(=O)N1CCC[C@H]1C(=O)N1CCC[C@H]1C(=O)N1CCC[C@H]1C(=O)N[C@@H](CO)C(N)=O)[C@@H](C)CC)C(=O)O [SEQ ID NO: 56, Y-Aib-Q-G-T-F-T-S-D-L-S-K-Q-K(yE-x53)-DSRAARDFIEWLKAGGPSSGAPPPS-NH2] (H-Y[Aib]QGTFTSDLSKQK([γGlu-Palmitoyl])DSRAARDFIEWLKAGGPSSGAPPPS-NH2) | 0.0046 | 0.0199 | 0.162
